{
  "source": "paper PMC2714474",
  "about": "“Extreme variability in the formation of chlorpyrifos oxon (CPO) in patients poisoned by chlorpyrifos (CPF)” (Biochemical Pharmacology, 2009)",
  "key": {"[1]": {"biological_target": "T1, RBC acetylcholinesterase (AChE; EC 3.1.1.7) (Homo sapiens, UniProt P22303)", "T1 construct": "from tissue; host or cells: red blood cells (diluted whole blood) of chlorpyrifos-poisoned patients", "T1 sequence (P22303 32-617 isoform P22303-2 limits assumed)": "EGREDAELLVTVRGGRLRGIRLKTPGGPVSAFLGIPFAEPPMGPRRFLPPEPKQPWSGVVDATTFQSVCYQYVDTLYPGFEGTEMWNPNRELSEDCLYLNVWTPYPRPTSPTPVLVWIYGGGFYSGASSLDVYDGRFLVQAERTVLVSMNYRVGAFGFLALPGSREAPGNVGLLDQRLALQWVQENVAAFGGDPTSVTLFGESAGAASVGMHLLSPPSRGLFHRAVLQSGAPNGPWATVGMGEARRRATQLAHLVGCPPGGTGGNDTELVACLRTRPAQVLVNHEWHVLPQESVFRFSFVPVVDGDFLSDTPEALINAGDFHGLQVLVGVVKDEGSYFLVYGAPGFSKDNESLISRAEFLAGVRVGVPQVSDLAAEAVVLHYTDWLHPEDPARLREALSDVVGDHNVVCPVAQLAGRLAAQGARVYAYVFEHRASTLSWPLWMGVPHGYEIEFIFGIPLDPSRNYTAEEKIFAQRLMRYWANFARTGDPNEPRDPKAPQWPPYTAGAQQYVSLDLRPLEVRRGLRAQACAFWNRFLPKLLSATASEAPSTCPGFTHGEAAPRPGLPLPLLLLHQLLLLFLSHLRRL", "test": "RBC-AChE activity in CPF-poisoned patients (modified Ellman assay)", "format": "in vivo", "method": "(§1) Laboratory analyses were conducted in Munich, Germany. AChE activity was determined in native RBCs (AChE in vivo) and after reactivation with supra-therapeutic obidoxime (AChE in vitro) to estimate the reactivatable fraction. These assays were performed using a modified Ellman assay as described. BChE activity and inhibitory activity of plasma were assessed as reported. In short, inhibitory activity of patient plasma was tested by incubating 3 volumes of hemolysate (3 g Hb/100 mL 0.1 M phosphate buffer, pH 7.4; washed red blood cells from a healthy donor) with 1 volume of patient plasma at 37 °C for 60 min."}, "[2]": {"biological_target": "butyrylcholinesterase (BChE; EC 3.1.1.8) (Homo sapiens, UniProt P06276)", "sequence (P06276 29-602)": "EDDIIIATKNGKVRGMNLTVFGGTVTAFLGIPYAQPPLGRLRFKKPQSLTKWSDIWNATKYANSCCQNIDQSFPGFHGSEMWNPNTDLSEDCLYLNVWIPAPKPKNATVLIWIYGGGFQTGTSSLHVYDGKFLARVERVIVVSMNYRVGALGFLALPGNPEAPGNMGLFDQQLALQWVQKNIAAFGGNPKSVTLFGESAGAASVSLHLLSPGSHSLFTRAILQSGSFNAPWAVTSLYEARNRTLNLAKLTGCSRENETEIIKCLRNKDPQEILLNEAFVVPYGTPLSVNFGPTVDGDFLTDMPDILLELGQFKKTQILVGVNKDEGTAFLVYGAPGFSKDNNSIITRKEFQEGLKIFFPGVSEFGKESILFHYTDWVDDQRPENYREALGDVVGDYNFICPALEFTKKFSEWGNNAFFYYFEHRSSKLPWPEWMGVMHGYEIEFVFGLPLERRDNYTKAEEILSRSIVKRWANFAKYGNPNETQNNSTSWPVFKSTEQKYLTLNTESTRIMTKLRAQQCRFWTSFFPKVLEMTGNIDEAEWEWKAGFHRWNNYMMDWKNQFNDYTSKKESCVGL", "test": "BChE activity in plasma of CPF-poisoned patients", "format": "in vivo", "settings": "one patient, 70 min after CPF ingestion", "method": "as §1"}, "CYP2B6": {"tested_on": "CYP2B6", "settings": "read-out: Km of CPF desulfuration; human hepatic CYP2B6; cited from earlier work"}, "[3]": {"test": "Plasma CPF concentration in CPF-poisoned patients (HPLC)", "quoted_text": "(§2) Serial blood samples stem from patients with acute chlorpyrifos poisoning who were enrolled in two randomised controlled studies (RCT1: ISRCTN02920054 and RCT2: ISRCTN55264358). The studies were performed in Sri Lankan hospitals in Anuradhapura and Polonnaruwa aimed at evaluating the efficacy of oral superactivated charcoal (RCT 1) or pralidoxime (RCT 2) in symptomatic organophosphorus pesticide poisoning. Additional patients were recruited in a prospective cohort study in Nuwara Eliya that was assessing changes in neuromuscular junctional function in organophosphorus pesticide poisoning. […] Treatment consisted of fluid resuscitation and atropine as described [15] and pralidoxime chloride 1 g every 6 for 48 h (RCT1 and Nuwara Eliya cohort), although there was no strict adherence to this regimen. Patients in RCT2 were randomised to receive pralidoxime (2 g pralidoxime chloride loading dose over 20 min, then 0.5 g/h until a maximum of 7 days) or an equal volume of normal saline in addition to the supportive therapy mentioned above. The blood samples were collected between 25 May 2004 and 18 October 2006.\n(§3) Blood samples were collected into tubes containing EDTA prior to pralidoxime, then at 1, 4, 12, and 24 h after administration, then once daily until discharge or death. A 0.2 mL blood sample was diluted at the bedside immediately after collection with 4 mL of ice-cold saline and frozen to −23 °C until analysis of AChE activity. The remaining sample was promptly centrifuged and the aspirated plasma frozen at −23 °C until analysis of BChE activity, inhibitory activity, and the concentration of CPF and CPO [15].\nCPF was determined by reversed phase HPLC with detection at 288 nm. Specifically, 0.5 mL plasma was mixed with 10 μL of 500 μM fenitrothion as internal standard to control the extraction yield. The plasma was extracted twice with 1 mL n-hexane for 1 min and residual lipoproteins in the combined hexane phases were precipitated with 50 μL 1 M perchloric acid, followed by centrifugation (10.000 rpm for 1 min). The hexane phase was transferred in a borosilica vial and 10 μL of DMSO was added as keeper. Hexane was evaporated at approximately 40 °C for 30 min in a Speed-Vac-Concentrator. The residue was dissolved in 90 μL of methanol:water (70/30, v/v) and 50 μL were applied to LiChrosphere 100 RP-18, 5 μm, 125 mm × 4 mm (E. Merck, Darmstadt, Germany) and eluted at a flow rate of 1 mL/min by gradient elution. […] Typically, fenitrothion was eluted after 3.3 min and chlorpyrifos after 11.5 min. The lower limit of quantification (LOQ) was 0.1 μM in plasma."}, "CYP3A4": {"tested_on": "CYP3A4", "settings": "read-out: Km of CPF desulfuration; human hepatic CYP3A4; cited from earlier work"}, "BChE": {"tested_on": "BChE", "settings": "cited from earlier work"}, "[4]": {"tested_on": "human diethylphosphoryl-AChE", "settings": "human red blood cells in vitro, cited from earlier work"}, "[5]": {"tested_on": "human red blood cell AChE", "set-up": "method as in PMID 15181665", "settings": "cited from earlier work"}, "[6]": {"test": "Ratio CPO/CPF in plasma of CPF-poisoned patients", "format": "in vivo, human", "description": "Data were excluded when CPF and/or CPO were below the LOQs or when the time of ingestion or blood sampling was ambiguous. […] In these cases significant post-sampling reactions had to be suspected."}, "RBC-AChE": {"biological_target": "T2, RBC-AChE (Homo sapiens, UniProt P22303)", "T2 construct": "washed red blood cells from a healthy donor; from tissue; host or cells: haemolysate of washed red blood cells from a healthy donor", "T2 sequence (P22303 32-617 isoform P22303-2 limits assumed)": "as the sequence (P22303 32-617 isoform P22303-2 limits assumed) above", "test": "Inhibitory activity of patient plasma towards RBC-AChE of a healthy donor", "format": "biochemical", "settings": "EDTA-based plasma, absence of pralidoxime", "method": "as §1"}, "[7]": {"tested_on": "human red blood cell AChE", "test": "Inhibition kinetics of human red blood cell AChE by CPO", "format": "biochemical", "settings": "11.3 nM AChE, 20 nM CPO", "excerpt": "The basis for the calculation of free CPO is the equation given below: [E]/[EP+EPOx]=kr/ki×[P]×(1+KD/[Ox]) E = active enzyme; EP = phosphorylated, but unaged enzyme; EPOx = complex of oxime and phosphorylated, but unaged enzyme; [EP + EPOx] is the reactivatable enzyme = AChE in vitro–AChE in vivo; kr is the first-order reactivation rate constant; KD is the dissociation constant of the complex EPOx; ki is the second-order inhibition rate constant; [P] is the oxon concentration; [Ox] is the oxime concentration.\nThe fraction of active test AChE upon incubation with known amounts of CPO in plasma samples was calculated discretely in 1-min increments using the following equation: E=E0−ki×(E−EP)×0.15×(CPO0−EP), with E0 and CPO0 being the AChE and total CPO concentration at t = 0 (the factor 0.15 corrects for the fraction not bound reversibly to albumin)."}, "[8]": {"test": "Plasma CPO concentration in CPF-poisoned patients (enzyme-based assay with horse BChE)", "settings": "median (IQR)", "quoted_text": "as §2, §3\nCPO was determined by an enzyme-based assay as described recently [9]. In short, CPO was extracted with n-pentane and the reconstituted residue titrated with purified horse BChE, allowing an LOQ of 0.5 nM. The data were corrected for 83% recovery of CPO from plasma [9]."}, "bovine serum albumin [9]": {"tested_on": "bovine serum albumin", "settings": "pH 7.4 and 37 °C, cited from earlier work"}, "bovine serum albumin [10]": {"tested_on": "bovine serum albumin", "test": "Hydrolysis / inactivation of CPO by serum albumin", "format": "biochemical", "settings": "20 nM CPO, 1% albumin in inhibition assay, assuming human serum albumin has similar constants as BSA"}},
  "data": [
    {"compound": "CCOP(=S)(OCC)Oc1nc(Cl)c(Cl)cc1Cl", "note": "[CPF, Chlorpyrifos]", "values": [
      {"measurement": "AChE activity, of normal", "setting": "[1]; one patient, 70 min after CPF ingestion", "value": "< 10", "unit": "%"},
      {"measurement": "BChE activity, of normal", "setting": "[2]", "value": "less than 2%"},
      {"measurement": "Km", "setting": "CYP2B6", "value": "~1", "unit": "µM"},
      {"measurement": "CPF plasma concentration", "setting": "[3]; 0–4 h post poisoning, median (interquartile range), n=52", "value": "2.54 (1.6–4.7) μM"},
      {"measurement": "CPF plasma concentration", "setting": "[3]; 4–8 h post poisoning, median (IQR), n=67", "value": "1.65 (0.7–3.2) μM"},
      {"measurement": "CPF plasma concentration", "setting": "[3]; 8–16 h post poisoning, median (IQR), n=59", "value": "0.70 (0.4–1.2) μM"},
      {"measurement": "CPF plasma concentration", "setting": "[3]; 16–24 h post poisoning, median (IQR), n=30", "value": "0.44 (0.3–1.5) μM"},
      {"measurement": "CPF plasma concentration", "setting": "[3]; 24–36 h post poisoning, median (IQR), n=45", "value": "0.47 (0.3–1.1) μM"},
      {"measurement": "CPF plasma concentration", "setting": "[3]; 36–60 h post poisoning, median (IQR), n=41", "value": "0.66 (0.2–1.0) μM"},
      {"measurement": "CPF plasma concentration", "setting": "[3]; 60–84 h post poisoning, median (IQR), n=27", "value": "0.46 (0.2–0.8) μM"},
      {"measurement": "CPF plasma concentration", "setting": "[3]; 84–120 h post poisoning, median (IQR), n=28", "value": "0.39 (0.2–0.7) μM"},
      {"measurement": "Km", "setting": "CYP3A4", "value": "~30", "unit": "µM"}
    ]},
    {"compound": "CCOP(=O)(OCC)Oc1cc(C)nc(C(C)C)n1", "note": "[diazoxon, reference compound]", "values": [
      {"measurement": "reactivity in inhibiting BChE, times less than CPO", "setting": "BChE", "value": 20, "unit": "times"}
    ]},
    {"compound": "C[n+]1ccccc1/C=N/O", "note": "[pralidoxime]", "values": [
      {"measurement": "kr, first-order reactivation rate constant", "setting": "[4]", "value": 0.3, "unit": "min⁻¹"},
      {"measurement": "Kd", "setting": "[4]; read-out: KD, dissociation constant of the complex EPOx", "value": 330, "unit": "µM"},
      {"measurement": "AChE reactivation (fraction of active enzyme from reactivatable pool)", "setting": "[1]; patient A, continuous pralidoxime infusion given for 5 days", "value": "~90", "unit": "%"}
    ]},
    {"compound": "Chlorpyrifos oxon [CPO]", "values": [
      {"measurement": "ki, second-order inhibition rate constant", "setting": "[5]", "value": 100000, "unit": "M⁻¹ s⁻¹"},
      {"measurement": "CPO/CPF × 1000", "setting": "[6]; 0–4 h post poisoning, median (IQR) of individual sample ratios", "value": "4.2 (1.9–9.5)"},
      {"measurement": "CPO/CPF × 1000", "setting": "[6]; 4–8 h post poisoning, median (IQR)", "value": "6.8 (4.3–14.0)"},
      {"measurement": "CPO/CPF × 1000", "setting": "[6]; 8–16 h post poisoning, median (IQR)", "value": "17.5 (9.2–31.6)"},
      {"measurement": "CPO/CPF × 1000", "setting": "[6]; 16–24 h post poisoning, median (IQR)", "value": "14.2 (10.5–42.6)"},
      {"measurement": "CPO/CPF × 1000", "setting": "[6]; 24–36 h post poisoning, median (IQR)", "value": "28.6 (11.3–44.4)"},
      {"measurement": "ratio CPO/CPF, other individuals", "setting": "[6]; 24–120 h, steady-state, high individuals", "value": "> 0.05"},
      {"measurement": "ratio CPO/CPF, some individuals", "setting": "[6]; 24–120 h, steady-state, low individuals", "value": "below 0.01"},
      {"measurement": "CPO/CPF × 1000", "setting": "[6]; 36–60 h post poisoning, median (IQR)", "value": "29.2 (14.4–70.7)"},
      {"measurement": "CPO/CPF × 1000", "setting": "[6]; 60–84 h post poisoning, median (IQR)", "value": "37.3 (12.7–65.3)"},
      {"measurement": "CPO/CPF × 1000", "setting": "[6]; 84–120 h post poisoning, median (IQR)", "value": "25.0 (15.4–53.6)"},
      {"measurement": "ratio of CPO/CPF (apparent steady-state mean)", "setting": "[6]; between 30 and 72 h", "value": 0.03},
      {"measurement": "ratio of CPO/CPF (mean)", "setting": "[6]; first few hours after ingestion", "value": 0.005},
      {"measurement": "ratio of CPO/CPF", "setting": "[6]; period between 0 and 4 h after ingestion", "value": "less than 0.005"},
      {"measurement": "ratio of CPO/CPF on average", "setting": "[6]; period between 24 and 120 h", "value": "~0.03"},
      {"measurement": "reaction faster with BChE than with AChE", "setting": "BChE", "value": "more than 2 orders of magnitude"},
      {"measurement": "fraction of CPO capable of inhibiting AChE", "setting": "RBC-AChE", "value": "roughly 2/3"},
      {"measurement": "(initial) AChE inhibition rate", "setting": "[7]", "value": 1.35, "unit": "nM/min"},
      {"measurement": "CPO plasma concentration", "setting": "[8]; 0–4 h post CPF poisoning, n=52", "value": "10.1 (4.5–22.2) nM"},
      {"measurement": "CPO plasma concentration", "setting": "[8]; 4–8 h post CPF poisoning, n=67", "value": "11.9 (6.5–21.5) nM"},
      {"measurement": "CPO plasma concentration", "setting": "[8]; 8–16 h post CPF poisoning, n=59", "value": "12.7 (5.5–22.5) nM"},
      {"measurement": "CPO plasma concentration", "setting": "[8]; 16–24 h post CPF poisoning, n=30", "value": "9.6 (4.1–30.1) nM"},
      {"measurement": "CPO plasma concentration", "setting": "[8]; 24–36 h post CPF poisoning, n=45", "value": "14.1 (4.7–34.5) nM"},
      {"measurement": "CPO plasma concentration", "setting": "[8]; 36–60 h post CPF poisoning, n=41", "value": "16.7 (3.4–68.4) nM"},
      {"measurement": "CPO plasma concentration", "setting": "[8]; 60–84 h post CPF poisoning, n=27", "value": "22.7 (2.2–59.9) nM"},
      {"measurement": "CPO plasma concentration", "setting": "[8]; 84–120 h post CPF poisoning, n=28", "value": "7.1 (4.2–40.2) nM"},
      {"measurement": "Vmax of CPO 'hydrolysis' by bovine serum albumin", "setting": "bovine serum albumin [9]", "value": 0.9, "unit": "nmol/min/mg protein"},
      {"measurement": "Km", "setting": "bovine serum albumin [9]; read-out: Km of CPO 'hydrolysis' by bovine serum albumin", "value": 400, "unit": "µM"},
      {"measurement": "rate of CPO inactivation by albumin", "setting": "bovine serum albumin [10]", "value": 0.45, "unit": "nM/min"}
    ]}
  ]
}
